The results in this text go back to US20080269251A1, “Substituted Pyrazinone Derivatives as Alpha2C-Adrenoreceptor Antagonists” (priority 2005, published 2008).

In assay [1] the target is T1, human adrenergic-α2A receptor (Homo sapiens, UniProt P08913).
T1 construct: expressed in transfected cells; host or cells: CHO cells, stably transfected; membrane preparation
T1 sequence (P08913 1-465): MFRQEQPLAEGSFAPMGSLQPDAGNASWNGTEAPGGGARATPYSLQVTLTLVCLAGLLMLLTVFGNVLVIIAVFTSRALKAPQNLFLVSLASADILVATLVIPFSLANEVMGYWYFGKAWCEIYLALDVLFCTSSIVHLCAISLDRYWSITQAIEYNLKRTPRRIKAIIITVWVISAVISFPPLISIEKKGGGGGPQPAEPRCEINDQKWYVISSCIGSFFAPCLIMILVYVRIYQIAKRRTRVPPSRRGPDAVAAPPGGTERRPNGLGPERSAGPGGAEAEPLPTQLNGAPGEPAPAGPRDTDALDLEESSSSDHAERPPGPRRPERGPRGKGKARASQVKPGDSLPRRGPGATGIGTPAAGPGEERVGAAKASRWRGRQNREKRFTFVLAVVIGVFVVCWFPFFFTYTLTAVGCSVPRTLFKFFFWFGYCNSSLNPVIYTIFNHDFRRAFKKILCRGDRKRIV
Kind of assay: Radioligand binding experiment for hα2A-adrenergic receptor ([3H]raulwolscine). The conditions noted are these: [3H]raulwolscine 1 nM, 60 minutes at 25° C.; for IC50: read-out: h-α2A pIC50 (converted). Here is the method: (§1) The interaction of the compounds of Formula (I) with α2C-adrenoceptor receptors was assessed in in vitro radioligand binding experiments. In general, a low concentration of a radioligand with a high binding affinity for a particular receptor or transporter is incubated with a sample of a tissue preparation enriched in a particular receptor or transporter or with a preparation of cells expressing cloned human receptors in a buffered medium. During the incubation, the radioligand binds to the receptor or transporter. When equilibrium of binding is reached, the receptor bound radioactivity is separated from the non-bound radioactivity, and the receptor- or transporter-bound activity is counted. The interaction of the test compounds with the receptor is assessed in competition binding experiments. Various concentrations of the test compound are added to the incubation mixture containing the receptor- or transporter preparation and the radioligand. The test compound in proportion to its binding affinity and its concentration inhibits binding of the radioligand. The radioligand used for […] receptor binding was [^3H]-raulwolscine.
(§2) CHO cells, stabile transfected with human adrenergic-α2A, -α2B or α2C receptor cDNA, were cultured in Dulbecco's Modified Eagle's Medium (DMEM)/Nutrient mixture Ham's F12 (ratio 1:1)(Gibco, Gent-Belgium) supplemented with 10% heat inactivated fetal calf serum (Life Technologies, Merelbeke-Belgium) and antibiotics (100 IU/ml penicillin G, 100 μg/ml streptomycin sulphate, 110 μg/ml pyruvic acid and 100 μg/ml L-glutamine). One day before collection, cells were induced with 5 mM sodiumbutyrate. Upon 80-90% of confluence, cells were scraped in phosphate buffered saline without Ca^2+ and Mg^2+ and collected by centrifugation at 1500×g for 10 minutes. The cells were homogenised in Tris-HCl 50 mM using an Ultraturrax homogenizer and centrifuged for 10 minutes at 23,500×g. The pellet was washed once by resuspension and rehomogenization and the final pellet was resuspended in Tris-HCl, divided in 1 ml aliquots and stored at −70° C.
(§3) Membranes were thawed and re-homogenized in incubation buffer (glycylglycine 25 mM, pH 8.0). In a total volume of 500 μl, 2-10 μg protein was incubated with [^3H]raulwolscine (NET-722) (New England Nuclear, USA) (1 nM final concentration) with or without competitor for 60 minutes at 25° C. followed by rapid filtration over GF/B filter using a Filtermate196 harvester (Packard, Meriden, Conn.). Filters were rinsed extensively with ice-cold rinsing buffer (Tris-HCl 50 mM pH 7.4). Filter-bound radioactivity was determined by scintillation counting in a Topcount (Packard, Meriden, Conn.) and results were expressed as counts per minute (cpm). Non-specific binding was determined in the presence of 1 μM oxymetazoline for hα2A- and hα2B receptors and 1 μM spiroxatrine for hα2C receptors.
(§4) Data from assays in the presence of compound were calculated as a percentage of total binding measured in the absence of test compound. Inhibition curves, plotting percent of total binding versus the log value of the concentration of the test compound, were automatically generated, and sigmoidal inhibition curves were fitted using non-linear regression. The pIC50 values of test compounds were derived from individual curves.

The target of assay [2] is T2, human adrenergic-α2C receptor (Homo sapiens, UniProt P18825).
T2 construct: expressed in transfected cells; host or cells: CHO cells, stably transfected; membrane preparation
T2 sequence (P18825 1-462): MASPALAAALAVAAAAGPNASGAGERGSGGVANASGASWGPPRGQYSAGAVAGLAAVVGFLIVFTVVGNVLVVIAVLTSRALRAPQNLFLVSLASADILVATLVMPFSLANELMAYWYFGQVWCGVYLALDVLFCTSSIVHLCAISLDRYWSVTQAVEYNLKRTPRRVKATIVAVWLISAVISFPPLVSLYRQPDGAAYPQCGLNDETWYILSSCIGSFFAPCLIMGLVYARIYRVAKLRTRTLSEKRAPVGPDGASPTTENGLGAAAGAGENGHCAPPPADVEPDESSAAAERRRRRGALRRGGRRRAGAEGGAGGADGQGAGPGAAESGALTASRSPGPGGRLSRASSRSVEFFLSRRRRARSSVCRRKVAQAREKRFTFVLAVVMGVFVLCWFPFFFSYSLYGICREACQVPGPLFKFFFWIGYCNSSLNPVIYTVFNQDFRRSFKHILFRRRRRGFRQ
Nature of the assay: Radioligand binding experiment for hα2C-adrenoceptor ([3H]raulwolscine). As to conditions: [3H]raulwolscine 1 nM, 60 minutes at 25° C.; for IC50: read-out: h-α2C pIC50 (converted). How it is done:
as §1, §2, §3, §4

Another assay concerns the target T3, 5HT-transporter (Homo sapiens, UniProt P31645).
T3 construct: Human platelet membranes (Oceanix Biosciences Corporation, Hanover, Md., USA) were thawed; tissue Oceanix Biosciences Corporation, Hanover, Md., USA; host or cells: human platelet membranes
Nature of the assay: Binding experiment for the 5HT-transporter ([3H]paroxetine, human platelet membranes). The conditions noted are these: [3H]paroxetine 0.5 nM, 60 min at 25° C.; for IC50: read-out: h-5HTT pIC50 (converted). How it is done:
as §1
Human platelet membranes (Oceanix Biosciences Corporation, Hanover, Md., USA) were thawed, diluted in buffer (Tris-HCl 50 mM, 120 mM NaCl and 5 mM KCl) and quickly (max 3 s) homogenised with an Ultraturrax homogenizer. […] Incubation was stopped by rapid filtration of the incubation mixture over GF/B filters, pre-wetted with 0.1% polyethyleneamine, using a Filtermate196 harvester (Packard, Meriden, Conn.). Filters were rinsed extensively with ice-cold buffer and radioactivity on the filters was counted in a Topcount liquid scintillation counter (Packard, Meriden, Conn.). Data were expressed as cpm. Imipramine (at 1 μM final concentration) was used to determine the non-specific binding.
as §4

Structures are written as SMILES.

T3 sequence (P31645 whole entry): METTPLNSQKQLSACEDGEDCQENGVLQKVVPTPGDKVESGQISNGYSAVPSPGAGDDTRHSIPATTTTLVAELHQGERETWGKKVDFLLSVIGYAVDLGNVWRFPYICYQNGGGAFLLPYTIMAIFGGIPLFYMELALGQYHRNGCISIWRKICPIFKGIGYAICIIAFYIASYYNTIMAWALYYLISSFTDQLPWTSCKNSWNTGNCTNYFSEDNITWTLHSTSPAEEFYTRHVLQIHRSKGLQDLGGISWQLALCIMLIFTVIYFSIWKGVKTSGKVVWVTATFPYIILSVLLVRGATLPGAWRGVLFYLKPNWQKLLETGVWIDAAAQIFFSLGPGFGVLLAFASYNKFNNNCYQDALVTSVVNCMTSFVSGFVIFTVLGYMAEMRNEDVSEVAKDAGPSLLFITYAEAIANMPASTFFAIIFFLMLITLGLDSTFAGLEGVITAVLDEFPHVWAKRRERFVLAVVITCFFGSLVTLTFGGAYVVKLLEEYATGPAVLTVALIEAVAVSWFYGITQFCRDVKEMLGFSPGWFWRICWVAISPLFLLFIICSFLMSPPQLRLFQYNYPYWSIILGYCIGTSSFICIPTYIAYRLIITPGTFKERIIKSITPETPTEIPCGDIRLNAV

With `CCCC(=O)N(Cc1ccc(-n2ccnc(NC3CCN(Cc4ccc5ccccc5c4)CC3)c2=O)cc1)C(=O)CCC` [1-29], the IC50 in assay [1] was 398 nM; in assay [2], 39.8 nM; on 5HT-transporter it was 20 nM.
Turning to `COCCC(=O)NCc1ccc(-n2ccnc(NC3CCN(Cc4ccc5ccccc5c4)CC3)c2=O)cc1` [1-30], the IC50 in assay [1] is 316 nM; in assay [2], 31.6 nM; on 5HT-transporter it was 15.8 nM.
In the case of `C=CCCC(=O)NCc1ccc(-n2ccnc(NC3CCN(Cc4ccc5ccccc5c4)CC3)c2=O)cc1` [1-31], the “h-α2A pIC50” value in assay [1] is listed as 6.5. For the same compound, the “h-α2C pIC50” value in assay [2] is reported as 7.5. Moreover, on 5HT-transporter, the “h-5HTT pIC50” value was found to be 8.1.
For the compound `CC(C)(C)OC(=O)NCCCn1ccnc(NC2CCN(Cc3ccc4ccccc4c3)CC2)c1=O` [1-32], the IC50 is 200 nM in assay [1], 12.6 nM in assay [2] and 31.6 nM at 5HT-transporter.
Consider `CC(C)(C)OC(=O)NCc1ccc(-n2ccnc(NC3CCN(Cc4ccc5ccccc5c4)CC3)c2=O)cc1` [1-33], for which the IC50 in assay [1] is 501 nM; in assay [2], 79.4 nM; at 5HT-transporter, 25.1 nM.
Consider `CC(C)(C)OC(=O)NCc1ccc(Cn2ccnc(NC3CCN(Cc4ccc5ccccc5c4)CC3)c2=O)cc1` [1-34], for which the IC50 in assay [1] is 251 nM; in assay [2], 100 nM; on 5HT-transporter it was 79.4 nM.
As for `CN(CCCn1ccnc(NC2CCN(Cc3ccc4ccccc4c3)CC2)c1=O)C(=O)OC(C)(C)C` [1-35], the figures for the IC50 (in assay [1]; in assay [2]; at 5HT-transporter) were 316 nM, 25.1 nM and 39.8 nM, respectively.
As to `COC(=O)CN(C)Cc1ccc(-n2ccnc(NC3CCN(Cc4ccc5ccccc5c4)CC3)c2=O)cc1` [1-36], the IC50 in assay [1] was 501 nM; in assay [2] it was 50.1 nM; at 5HT-transporter, 158 nM.
With `COC(=O)CCCC(=O)NCc1ccc(-n2ccnc(NC3CCN(Cc4ccc5ccccc5c4)CC3)c2=O)cc1` [1-37], the IC50 in assay [1] was 631 nM; in assay [2], 39.8 nM; on 5HT-transporter, 12.6 nM.
In the same order, the values of `C#CCN(C)C(=O)Cn1ccnc(NC2CCN(Cc3ccc4ccccc4c3)CC2)c1=O` [1-38] are 398 nM, 63.1 nM and 1580 nM.
In the same order, the values of `CN(C)CCN(C)Cc1ccc(-n2ccnc(NC3CCN(Cc4ccc5ccccc5c4)CC3)c2=O)cc1` [1-39] are 79.4 nM, 15.8 nM and 63.1 nM.
With `CCCNC(=O)NCc1ccc(-n2ccnc(NC3CCN(Cc4ccc5ccccc5c4)CC3)c2=O)cc1` [1-40], the IC50 in assay [1] was 1260 nM; in assay [2], 100 nM; on 5HT-transporter it was 50.1 nM.
For `O=C(NCc1ccc(-n2ccnc(NC3CCN(Cc4ccc5ccccc5c4)CC3)c2=O)cc1)NCC1CCCCC1` [1-41], the “h-α2A pIC50” value in assay [1] came to 6.2. In addition, in assay [2], the “h-α2C pIC50” value was 7.2. In addition, the “h-5HTT pIC50” value on 5HT-transporter was determined as 7.2.
With `O=C(Cc1ccccc1)NCc1ccc(-n2ccnc(NC3CCN(Cc4ccc5ccccc5c4)CC3)c2=O)cc1` [1-42], the IC50 is 501 nM in assay [1], 31.6 nM in assay [2] and 5.01 nM on 5HT-transporter.
As to `O=C(CCc1ccccc1)NCc1ccc(-n2ccnc(NC3CCN(Cc4ccc5ccccc5c4)CC3)c2=O)cc1` [1-43], the IC50 was 251 nM in assay [1], 39.8 nM in assay [2] and 6.31 nM at 5HT-transporter.
In the case of `CN(C)CCNC(=O)NCc1ccc(-n2ccnc(NC3CCN(Cc4ccc5ccccc5c4)CC3)c2=O)cc1` [1-44], the IC50 in assay [1] was 63.1 nM; in assay [2], 12.6 nM; at 5HT-transporter it was 7.94 nM.
In the same order, the values of `COCCNC(=O)NCc1ccc(-n2ccnc(NC3CCN(Cc4ccc5ccccc5c4)CC3)c2=O)cc1` [1-45] are 398 nM, 31.6 nM and 25.1 nM.
For the compound `COCCCNC(=O)NCc1ccc(-n2ccnc(NC3CCN(Cc4ccc5ccccc5c4)CC3)c2=O)cc1` [1-46], the figures for the IC50 (in assay [1]; in assay [2]; at 5HT-transporter) were 501 nM, 39.8 nM and 63.1 nM, respectively.
